Data: US9051310B2, “Nicotinamide derivative or salt thereof” (FUJIFILM Corporation, priority 2011, dated 2015)

These compounds were tested against T1, glutathione S-transferase (GST)-linked full-length human Syk protein (Homo sapiens, UniProt P43405) (assay: Syk enzyme assay). Settings: 0.83 nM Syk, time-resolved fluorescence; read-out: IC50 of Syk-inhibitory activity.
T1 construct: glutathione S-transferase (GST)-linked full-length human Syk protein; purchased Carna Biosciences; host or cells: Baculovirus expression system
Format: biochemical
Method in brief: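 Phosphotyrosine on a biotin-peptide substrate (0.5 μM) was read by time-resolved fluorescence at 615 and 665 nm with Eu-anti-pTyr antibody and APC-streptavidin after 1 h EDTA stop.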

First: COc1nn(C)c2ncc(Nc3nc(N[C@@H](CN)CC(C)C)c(F)cc3C(N)=O)cc12 [Example 2-250, (R)-6-((1-amino-4-methylpentan-2-yl)amino)-5-fluoro-2-((3-methoxy-1-methyl-1H-pyrazolo[3,4-b]pyridin-5-yl)amino)nicotinamide]
Second: CC(C)C[C@H](CN)Nc1nc(Nc2cnc3c(c2)c(N(C)C)nn3C)c(C(N)=O)cc1F [Example 2-287, (R)-6-((1-amino-4-methylpentan-2-yl)amino)-2-((3-(dimethylamino)-1-methyl-1H-pyrazolo[3,4-b]pyridin-5-yl)amino)-5-fluoronicotinamide]
The IC50 of the first is lower: under 10 nM for the first, 10 to 50 nM for the second.

`COC[C@@H](Nc1nc(Nc2cnc3c(c2)c(OC)nn3C)c(C(N)=O)cc1F)[C@H](C)N` [Example 2-256, 6-(((2S,3S)-3-amino-1-methoxybutan-2-yl)amino)-5-fluoro-2-((3-methoxy-1-methyl-1H-pyrazolo[3,4-b]pyridin-5-yl)amino)nicotinamide] and `CC[C@H](N)[C@@H](C)Nc1nc(Nc2cnc3c(c2)c(OC)nn3C)c(C(N)=O)cc1F` [Example 2-257, 6-(((2R,3S)-3-aminopentan-2-yl)amino)-5-fluoro-2-((3-methoxy-1-methyl-1H-pyrazolo[3,4-b]pyridin-5-yl)amino)nicotinamide] fall in the same range of IC50: 50 to 100 nM for the first, 50 to 100 nM for the second.

`CC[C@H](N)[C@@H](CC)Nc1nc(Nc2cnc3c(c2)c(OC)nn3C)c(C(N)=O)cc1F` [Example 2-258, 6-(((3R,4S)-4-aminohexan-3-yl)amino)-5-fluoro-2-((3-methoxy-1-methyl-1H-pyrazolo[3,4-b]pyridin-5-yl)amino)nicotinamide] and `CC[C@@H](Nc1nc(Nc2cnc3c(c2)c(N(C)C)nn3C)c(C(N)=O)cc1F)[C@H](C)N` [Example 2-288, 6-(((2S,3R)-2-aminopentan-3-yl)amino)-2-((3-(dimethylamino)-1-methyl-1H-pyrazolo[3,4-b]pyridin-5-yl)amino)-5-fluoronicotinamide] fall in the same range of IC50: 10 to 50 nM for the first, 10 to 50 nM for the second.

First: CC[C@@H](Nc1nc(Nc2cnc(N3CCOCC3)c(F)c2)c(C(N)=O)cc1F)[C@H](C)N [Example 2-259, 6-(((2S,3R)-2-aminopentan-3-yl)amino)-5-fluoro-2-((5-fluoro-6-morpholinopyridin-3-yl)amino)nicotinamide]
Second: CCC[C@@H](Nc1nc(Nc2cnc(N3CCOCC3)c(F)c2)c(C(N)=O)cc1F)[C@H](C)N [Example 2-260, 6-(((2S,3R)-2-aminohexan-3-yl)amino)-5-fluoro-2-((5-fluoro-6-morpholinopyridin-3-yl)amino)nicotinamide]
The IC50 of the first is higher: 50 to 100 nM for the first, 10 to 50 nM for the second.

`CC(C)C[C@H](CN)Nc1nc(Nc2cnc(N3CCOCC3)c(F)c2)c(C(N)=O)cc1F` [Example 2-261, (R)-6-((1-amino-4-methylpentan-2-yl)amino)-5-fluoro-2-((5-fluoro-6-morpholinopyridin-3-yl)amino)nicotinamide] and `CCCC[C@@H](Nc1nc(Nc2cnc(N3CCOCC3)c(F)c2)c(C(N)=O)cc1F)[C@H](C)N` [Example 2-262, 6-(((2S,3R)-2-aminoheptan-3-yl)amino)-5-fluoro-2-((5-fluoro-6-morpholinopyridin-3-yl)amino)nicotinamide] fall in the same range of IC50: 10 to 50 nM for the first, 10 to 50 nM for the second.

First: CCn1ncc2cc(Nc3nc(N[C@H](C4CCCCC4)[C@H](C)N)c(F)cc3C(N)=O)ccc21 [Example 2-264, 6-(((1R,2S)-2-amino-1-cyclohexylpropyl)amino)-2-((1-ethyl-1H-indazol-5-yl)amino)-5-fluoronicotinamide]
Second: C[C@H](N)[C@H](Nc1nc(Nc2cnc3c(c2)c(N(C)C)nn3C)c(C(N)=O)cc1F)C1CCC1 [Example 2-293, 6-(((1R,2S)-2-amino-1-cyclobutylpropyl)amino)-2-((3-(dimethylamino)-1-methyl-1H-pyrazolo[3,4-b]pyridin-5-yl)amino)-5-fluoronicotinamide]
The IC50 of the first is higher: 10 to 50 nM for the first, under 10 nM for the second. The second is the more potent here.

`CC[C@@H](Nc1nc(Nc2cnc(NC)c(F)c2)c(C(N)=O)cc1F)[C@H](C)N` [Example 2-276, 6-(((2S,3R)-2-aminopentan-3-yl)amino)-5-fluoro-2-((5-fluoro-6-(methylamino)pyridin-3-yl)amino)nicotinamide] and `CCC[C@@H](Nc1nc(Nc2cnc(NC)c(F)c2)c(C(N)=O)cc1F)[C@H](C)N` [Example 2-277, 6-(((2S,3R)-2-aminohexan-3-yl)amino)-5-fluoro-2-((5-fluoro-6-(methylamino)pyridin-3-yl)amino)nicotinamide] fall in the same range of IC50: 10 to 50 nM for the first, 10 to 50 nM for the second.

First: CNc1ncc(Nc2nc(N[C@H](CC(C)C)[C@H](C)N)c(F)cc2C(N)=O)cc1F [Example 2-278, 6-(((2S,3R)-2-amino-5-methylhexan-3-yl)amino)-5-fluoro-2-((5-fluoro-6-(methylamino)pyridin-3-yl)amino)nicotinamide]
Second: COCCn1ncc2c(Nc3nc(N[C@H](CC(C)C)[C@H](C)N)c(F)cc3C(N)=O)cccc21 [Example 2-308, 6-(((2S,3R)-2-amino-5-methylhexan-3-yl)amino)-5-fluoro-2-((1-(2-methoxyethyl)-1H-indazol-4-yl)amino)nicotinamide]
The IC50 of the first is higher: 10 to 50 nM for the first, under 10 nM for the second.

First: CC[C@H](N)[C@@H](C)Nc1nc(Nc2cnc(OC)c(-n3nccn3)c2)c(C(N)=O)cc1F [Example 2-279, 6-(((2R,3S)-3-aminopentan-2-yl)amino)-5-fluoro-2-((6-methoxy-5-(2H-1,2,3-triazol-2-yl)pyridin-3-yl)amino)nicotinamide]
Second: CCC[C@@H](Nc1nc(Nc2cnc3c(c2)c(N(C)C)nn3C)c(C(N)=O)cc1F)[C@H](C)N [Example 2-289, 6-(((2S,3R)-2-aminohexan-3-yl)amino)-2-((3-(dimethylamino)-1-methyl-1H-pyrazolo[3,4-b]pyridin-5-yl)amino)-5-fluoronicotinamide]
The IC50 of the first is higher: 10 to 50 nM for the first, under 10 nM for the second.

`CN(C)c1nn(C)c2ncc(Nc3nc(N[C@@H]4CCCC[C@@H]4N)c(F)cc3C(N)=O)cc12` [Example 2-286, 6-(((1R,2S)-2-aminocyclohexyl)amino)-2-((3-(dimethylamino)-1-methyl-1H-pyrazolo[3,4-b]pyridin-5-yl)amino)-5-fluoronicotinamide] and `CN(C)c1nn(C)c2ncc(Nc3nc(N[C@@H]4CCOC[C@@H]4N)c(F)cc3C(N)=O)cc12` [Example 2-335, 6-(((3R,4R)-3-aminotetrahydro-2H-pyran-4-yl)amino)-2-((3-(dimethylamino)-1-methyl-1H-pyrazolo[3,4-b]pyridin-5-yl)amino)-5-fluoronicotinamide] fall in the same range of IC50: 10 to 50 nM for the first, 10 to 50 nM for the second.

First: C[C@H](N)[C@H](Nc1nc(Nc2cnc3c(c2)c(N(C)C)nn3C)c(C(N)=O)cc1F)C1CC1 [Example 2-290, 6-(((1R,2S)-2-amino-1-cyclopropylpropyl)amino)-2-((3-(dimethylamino)-1-methyl-1H-pyrazolo[3,4-b]pyridin-5-yl)amino)-5-fluoronicotinamide]
Second: C[C@@H](Nc1nc(Nc2ccc3c(c2)c(N(C)C)nn3C)c(C(N)=O)cc1F)[C@@H](N)C1CC1 [Example 2-301, 6-(((1S,2R)-1-amino-1-cyclopropylpropan-2-yl)amino)-2-((3-(dimethylamino)-1-methyl-1H-indazol-5-yl)amino)-5-fluoronicotinamide]
The IC50 of the first is lower: 10 to 50 nM for the first, 50 to 100 nM for the second.

`Cc1nn(CC(F)F)c2ccc(Nc3nc(N[C@H](C)[C@@H](N)C4CC4)c(F)cc3C(N)=O)cc12` [Example 2-300, 6-(((1S,2R)-1-amino-1-cyclopropylpropan-2-yl)amino)-2-((1-(2,2-difluoroethyl)-3-methyl-1H-indazol-5-yl)amino)-5-fluoronicotinamide] and `C[C@H](N)[C@H](Nc1nc(Nc2ccc3c(c2)c(N(C)C)nn3C)c(C(N)=O)cc1F)c1ccccc1` [Example 2-315, 6-(((1R,2S)-2-amino-1-phenylpropyl)amino)-2-((3-(dimethylamino)-1-methyl-1H-indazol-5-yl)amino)-5-fluoronicotinamide] fall in the same range of IC50: 10 to 50 nM for the first, 10 to 50 nM for the second.

`COCCn1ncc2c(Nc3nc(N[C@@H](CN)CC(C)C)c(F)cc3C(N)=O)cccc21` [Example 2-303, (R)-6-((1-amino-4-methylpentan-2-yl)amino)-5-fluoro-2-((1-(2-methoxyethyl)-1H-indazol-4-yl)amino)nicotinamide] and `CC[C@@H](Nc1nc(Nc2cccc3c2cnn3CCOC)c(C(N)=O)cc1F)[C@H](C)N` [Example 2-304, 6-(((2S,3R)-2-aminopentan-3-yl)amino)-5-fluoro-2-((1-(2-methoxyethyl)-1H-indazol-4-yl)amino)nicotinamide] cannot be ordered by IC50: under 10 nM for the first, under 10 nM for the second.

First: CCCC[C@@H](Nc1nc(Nc2cccc3c2cnn3CCOC)c(C(N)=O)cc1F)[C@H](C)N [Example 2-307, 6-(((2S,3R)-2-aminoheptan-3-yl)amino)-5-fluoro-2-((1-(2-methoxyethyl)-1H-indazol-4-yl)amino)nicotinamide]
Second: CCOC[C@@H](Nc1nc(Nc2cccc3c2cnn3CCOC)c(C(N)=O)cc1F)[C@H](C)N [Example 2-310, 6-(((2S,3S)-3-amino-1-ethoxybutan-2-yl)amino)-5-fluoro-2-((1-(2-methoxyethyl)-1H-indazol-4-yl)amino)nicotinamide]
The IC50 of the first is lower: under 10 nM for the first, 50 to 100 nM for the second.

First: COCCn1ncc2c(Nc3nc(N[C@H](COC)[C@H](C)N)c(F)cc3C(N)=O)cccc21 [Example 2-309, 6-(((2S,3S)-3-amino-1-methoxybutan-2-yl)amino)-5-fluoro-2-((1-(2-methoxyethyl)-1H-indazol-4-yl)amino)nicotinamide]
Second: C[C@H](N)[C@H](Nc1nc(Nc2cnc(N3CCOCC3)c(F)c2)c(C(N)=O)cc1F)c1ccccc1 [Example 2-314, 6-(((1R,2S)-2-amino-1-phenylpropyl)amino)-5-fluoro-2-((5-fluoro-6-morpholinopyridin-3-yl)amino)nicotinamide]
The IC50 of the first is higher: 10 to 50 nM for the first, under 10 nM for the second.

`Cc1nn(C)c2ncc(Nc3nc(N[C@@H]4CCOC[C@@H]4N)c(F)cc3C(N)=O)cc12` [Example 2-333, 6-(((3R,4R)-3-aminotetrahydro-2H-pyran-4-yl)amino)-2-((1,3-dimethyl-1H-pyrazolo[3,4-b]pyridin-5-yl)amino)-5-fluoronicotinamide] was tested, and the IC50 was 10 to 50 nM.
